≈ marks a conversion by molar mass, not a printed value. Bridge positions count the residues as written; N and C are the ends. Peptide text beside a SMILES is read from it.
Columns and labels:
[1] = test system: E. cloacae 6054; assay type: cell-based; settings: cation adjusted Mueller-Hinton broth, ~10^6 CFU/mL, 24 h, 37 °C, OD600 <0.1 in at least 3 of 4 wells, 2-128 μg/mL; shaded values previously reported ref 18
Description: (§1) Assays were performed by Trideum Biosciences (Frederick, MD, USA). Isolates were thawed from −80 °C storage and sub-cultured on trypticase soy agar plates at 37 °C prior to experimentation. A single colony was aseptically picked from the agar plate and released in 30 mL trypticase soy broth and incubated overnight at 37 °C incubator. Following which the bacterial culture was diluted to approximately 10^6 colony forming units (CFU)/mL using 2X cation adjusted Mueller–Hinton broth and added to the dAMP solutions (0, 2, 4, 8, 16, 32, 64, and 128 μg/mL) which had been formulated in water at 256 μg/mL and then serially diluted in media on 96-well pates. For fungal evaluation, potato dextrose broth and potato dextrose agar plates were used. The treated cultures were then incubated for 24 h at 37 °C and pathogen growth was measured by absorbance at 600 nm. Four replicas were included for each dAMP concentration. Each MIC was assigned to the lowest test agent concentration resulting in at least three out of four wells showing no growth based on an optical density (OD) reading of <0.1.

[2] = test system: Absidia corymbifera NRRL 6251; assay type: cell-based; settings: potato dextrose broth, 24 h, 37 °C, OD600 <0.1 in at least 3 of 4 wells, dose range 2 to 128 µg/mL; shaded values previously reported ref 17
Description: as §1

[3] = test system: Aspergillus flavus MYA-1004; assay type: cell-based; settings: potato dextrose broth, 24 h, 37 °C, OD600 <0.1 in at least 3 of 4 wells, dose range 2 to 128 µg/mL; shaded values previously reported ref 17
Description: as §1

[4] = test system: Aspergillus fumigatus 9648; assay type: cell-based; settings: potato dextrose broth, 24 h, 37 °C, OD600 <0.1 in at least 3 of 4 wells, dose range 2 to 128 µg/mL; shaded values previously reported ref 17
Description: as §1

[5] = test system: P. aeruginosa 19660 (Xen5 luciferase); experiment: Bioluminescent time-kill assay; assay type: cell-based, Pseudomonas aeruginosa; settings: 8 μg/mL; RP553 at 60 min; bioluminescence
Text: Fungal and bacterial strains were obtained from American Type Culture Collection (ATCC, Manassas, VA, USA) or the clinical isolate collection at Trideum Biosciences (Frederick, MD, USA) and are presented in Table 1 and Table 2, respectively. Bioluminescence strains of P. aeruginosa 19660, transfected with the Xen5 luciferase gene, and S. aureus ATCC R 49525TM (Wright), transfected with the Xen36 luciferase gene, were obtained from Perkin Elmer (Waltham, MA, USA).
(§2) Real-time killing of bacterial cells, P. aeruginosa or S. aureus, and mammalian cytotoxicity to assess dAMP off-target toxicity was evaluated using bioluminescent cells. The L929 fibroblast cells (ATCC, Manassas, VA, USA) were made bioluminescent by transfection with a luciferase gene. Cells (1 × 10^4 cells, 100 μL) were plated in 96-well black-walled plates and the candidate dAMPs were 2-fold serially diluted from specified concentrations in growth medium supplemented with 150 μg/mL D-luciferin. Each concentration was performed in triplicate, with the final volume being 200 μL. Imaging was performed at select times after the addition of the dAMP, and compared to concurrently run vehicle-control, using an IVIS Lumina imaging system (Caliper Life Sciences, Inc., Hopkinton, MA, USA). For imaging, the 96-well plate was positioned on the stage (12.5-cm field of view), with an open emission filter, binning of 4, and f-stop 1 and a 1-min exposure time. Monitoring bioluminescence allows assessment of the kinetics of cellular viability as there is a tight correlation between the bioluminescent signal and cell viability. Data analysis was performed using the Living Image software program (version 4.3, Caliper Life Sciences, Inc., Hopkinton, MA, USA).
Figure 3 RP553, RP556, RP557 rapidly destroy P. aeruginosa and S. aureus. The bioluminescence of viable P. aeruginosa 19,660 and S. aureus 49,525 cells was quantitated in real time with an IVIS Lumina bioimaging system. Data represent the mean ± SE of triplicate replicates from two independent experiments. For some points, the error bars are shorter than the height of the symbols.

[6] = test system: K. pneumonia 6069; assay type: cell-based, Klebsiella pneumoniae; settings: cation adjusted Mueller-Hinton broth, ~10^6 CFU/mL, 24 h, 37 °C, OD600 <0.1 in at least 3 of 4 wells, 2-128 μg/mL; shaded values previously reported ref 18
Description: as §1

[7] = test system: K. pneumonia ATCC 10031; assay type: cell-based, Klebsiella pneumoniae; settings: cation adjusted Mueller-Hinton broth, ~10^6 CFU/mL, 24 h, 37 °C, OD600 <0.1 in at least 3 of 4 wells, 2-128 μg/mL; shaded values previously reported ref 18
Description: as §1

[8] = test system: S. aureus B-767; assay type: cell-based, Staphylococcus aureus; settings: cation adjusted Mueller-Hinton broth, ~10^6 CFU/mL, 24 h, 37 °C, OD600 <0.1 in at least 3 of 4 wells, 2-128 μg/mL; shaded values previously reported ref 18
Description: as §1

[9] = test system: MRSA 6313; assay type: cell-based, Staphylococcus aureus; settings: cation adjusted Mueller-Hinton broth, ~10^6 CFU/mL, 24 h, 37 °C, OD600 <0.1 in at least 3 of 4 wells, 2-128 μg/mL; shaded values previously reported ref 18
Description: as §1

[10] = test system: MRSA ATCC 33592; assay type: cell-based, Staphylococcus aureus; settings: cation adjusted Mueller-Hinton broth, ~10^6 CFU/mL, 24 h, 37 °C, OD600 <0.1 in at least 3 of 4 wells, 2-128 μg/mL; shaded values previously reported ref 18
Description: as §1

[11] = test system: S. aureus 6061; assay type: cell-based, Staphylococcus aureus; settings: cation adjusted Mueller-Hinton broth, ~10^6 CFU/mL, 24 h, 37 °C, OD600 <0.1 in at least 3 of 4 wells, 2-128 μg/mL; shaded values previously reported ref 18
Description: as §1

[12] = test system: MRSA 6381; assay type: cell-based, Staphylococcus aureus; settings: cation adjusted Mueller-Hinton broth, ~10^6 CFU/mL, 24 h, 37 °C, OD600 <0.1 in at least 3 of 4 wells, 2-128 μg/mL; shaded values previously reported ref 18
Description: as §1

[13] = test system: P. aeruginosa ATCC 19660; assay type: cell-based, Pseudomonas aeruginosa; settings: cation adjusted Mueller-Hinton broth, ~10^6 CFU/mL, 24 h, 37 °C, OD600 <0.1 in at least 3 of 4 wells, 2-128 μg/mL; shaded values previously reported ref 18
Description: as §1

[14] = test system: P. aeruginosa ATCC 27853; assay type: cell-based, Pseudomonas aeruginosa; settings: cation adjusted Mueller-Hinton broth, ~10^6 CFU/mL, 24 h, 37 °C, OD600 <0.1 in at least 3 of 4 wells, 2-128 μg/mL; shaded values previously reported ref 18
Description: as §1

[15] = test system: P. aeruginosa 6186; assay type: cell-based, Pseudomonas aeruginosa; settings: cation adjusted Mueller-Hinton broth, ~10^6 CFU/mL, 24 h, 37 °C, OD600 <0.1 in at least 3 of 4 wells, 2-128 μg/mL; shaded values previously reported ref 18
Description: as §1

[16] = test system: L929 fibroblast cells; experiment: Bioluminescent mammalian cytotoxicity assay; assay type: cell-based, murine; settings: L929 fibroblasts, up to 64 μg/mL, 8 h of exposure, bioluminescence
Description: as §2, with “Data analysis was performed using the Living Image software program (version 4.3, Caliper Life Sciences, Inc., Hopkinton, MA, USA).” left out
Figure 2 RP504, RP556 and RP557 induce limited mammalian cell toxicity. […] Cells were plated at 1×10^4 cells/well, allowed to adhere overnight and the specific dAMP added, and cytotoxicity evaluated through 8 h. […]

Structure (SMILES): CC[C@H](C)[C@@H]1NC(=O)CNC(=O)[C@H](CCCCN)NC(=O)[C@H](Cc2ccc(O)cc2)NC(=O)[C@@H]2CSSC[C@H](NC1=O)C(=O)N[C@@H](Cc1ccc(O)cc1)C(=O)N[C@@H](CCCCN)C(=O)N[C@@H](CCCCN)C(=O)N[C@H](C(=O)N[C@@H](CCCCN)C(N)=O)CSSC[C@H](NC(=O)[C@H](Cc1c[nH]c3ccccc13)NC(=O)[C@@H](N)CCCNC(=N)N)C(=O)N[C@@H](Cc1ccccc1)C(=O)N[C@@H](CCCCN)C(=O)N[C@@H](C(C)C)C(=O)N2 [RP556] (H-RWCFKVCYKGICYKKCK-NH2; disulfide 3-16, 7-12)
- MIC against E. cloacae 6054 [1]: 8 µg/mL (≈ 3.72 µM)
- MIC against Absidia corymbifera NRRL 6251 [2]: 2 µg/mL (≈ 0.929 µM)
- MIC against Aspergillus flavus MYA-1004 [3]: 64 µg/mL (≈ 29.7 µM)
- MIC against Aspergillus fumigatus 9648 [4]: 64 µg/mL (≈ 29.7 µM)
- P. aeruginosa killing (in words) [5]: immediate eradication
- MIC against K. pneumonia 6069 [6]: 8 µg/mL (≈ 3.72 µM)
- MIC against K. pneumonia ATCC 10031 [7]: 8 µg/mL (≈ 3.72 µM)
- MIC against S. aureus B-767 [8]: 8 µg/mL (≈ 3.72 µM)
- MIC against MRSA 6313 [9]: 8 µg/mL (≈ 3.72 µM)
- MIC against MRSA ATCC 33592 [10]: 4 µg/mL (≈ 1.86 µM)
- MIC against S. aureus 6061 [11]: 16 µg/mL (≈ 7.44 µM)
- MIC against MRSA 6381 [12]: 4 µg/mL (≈ 1.86 µM)
- MIC against P. aeruginosa ATCC 19660 [13]: 8 µg/mL (≈ 3.72 µM)
- MIC against P. aeruginosa ATCC 27853 [14]: 8 µg/mL (≈ 3.72 µM)
- MIC against P. aeruginosa 6186 [15]: 4 µg/mL (≈ 1.86 µM)
- mammalian cell toxicity (in words) [16]: Limited toxicity

From paper PMC7559897, “Designed Antimicrobial Peptides Against Trauma-Related Cutaneous Invasive Fungal Wound Infections” (Journal of Fungi, 2020)
